The source of these data is ChEMBL document CHEMBL1145705, “Flavonoids as inhibitors or enhancers of the cytotoxicity of tumor necrosis factor-alpha in L-929 tumor cells” (J Nat Prod, 1997).

Each structure is given as a SMILES string. The source made the active and inactive calls. The rule behind the calls is not given here.

For series [1], the system named is L929. Briefly: Inhibition of recombinant human TNF-alpha-induced cytotoxicity of mouse L929 cells assessed as survivality preincubated for 15 mins before TNFalpha addition measured after 24 hrs by [methyl-3H]thymidine incorporation assay. The series is classed as functional, cell-based. For orientation: Dividing cells build labelled thymidine or BrdU into new DNA.

The subject of series [2] is L929. Briefly: Inhibition of recombinant human TNF-alpha-induced cytotoxicity of mouse L929 cells assessed as survivality preincubated for 15 mins before TNFalpha addition measured after 24 hrs by crystal violet staining. It counts as functional, cell-based.
Series [3] concerns L929. Briefly: Inhibition of recombinant human TNF-alpha-induced cytotoxicity of mouse L929 cells assessed as survivality treated with drug after 2 hrs of TNFalpha treatment. The series is classed as functional, cell-based.
The subject of series [4] is L929. Briefly: Potentiation of recombinant human TNF-alpha-induced cytotoxicity of mouse L929 cells assessed as survivality treated with drug after 2 hrs of TNFalpha treatment. The series is classed as functional, cell-based.
For series [5], the system named is L929. The series is described as follows: Potentiation of recombinant human TNF-alpha-induced cytotoxicity of mouse L929 cells assessed as survivality preincubated for 15 mins before TNFalpha addition measured after 24 hrs by crystal violet staining. It counts as functional, cell-based.
In series [6] the test system is L929. The series is described as follows: Potentiation of recombinant human TNF-alpha-induced cytotoxicity of mouse L929 cells assessed as survivality preincubated for 15 mins before TNFalpha addition measured after 24 hrs by [methyl-3H]thymidine incorporation assay. The series is classed as functional, cell-based.
For series [7], the system named is L929. The series is described as follows: Cytotoxicity against mouse L929 cells at 1 uM preincubated for 15 mins before TNFalpha addition measured after 24 hrs by [methyl-3H]thymidine incorporation assay. It counts as cell-based. The conditions noted are these: l929, 24 h.
For series [8], the system named is L929. The series is described as follows: Cytotoxicity against mouse L929 cells at 1 uM preincubated for 15 mins before TNFalpha addition measured after 24 hrs by crystal violet staining. The series is classed as cell-based. Particulars: l929, 24 h.
In series [9] the test system is L929. Briefly: Potentiation of recombinant human TNF-alpha-induced cytotoxicity of mouse L929 cells assessed as survivality at 250 uM preincubated for 15 mins before TNFalpha addition measured after 24 hrs by crystal violet staining. The series is classed as functional.
The test system of series [10] is L929. Briefly: Potentiation of recombinant human TNF-alpha-induced cytotoxicity of mouse L929 cells assessed as survivality at 250 uM preincubated for 15 mins before TNFalpha addition measured after 24 hrs by [methyl-3H]thymidine incorporation assay. The series is classed as functional.

Consider `O=c1cc(-c2ccc(O)c(O)c2)oc2cc(O)cc(O)c12` [LUTEOLIN], for which the EC50 in the series with L929 [1] and in the series with L929 [2] was over 250 µM each time.
With `O=c1c(O)c(-c2ccccc2)oc2cc(O)cc(O)c12` [GALANGIN], the result in the series with L929 [3] and in the series with L929 [4] was Active. In addition, the figures for the EC50 in the series with L929 [1] and in the series on L929 [2] were 50 µM and 40 µM, respectively. The Activity entry with L929 [2] is “Dose-dependent effect”.
On to `O=c1c(O)c(-c2ccc(O)cc2)oc2cc(O)cc(O)c12` [KAEMPFEROL], for which the outcome with L929 [3] and with L929 [4] was Active. Besides, the concentration for a half-maximal effect (EC50) (in general, the concentration at which the effect is half-maximal) in the series with L929 [1] was 25 µM; with L929 [2], 20 µM. For the same molecule, in the series on L929 [2], the Activity result was “Dose-dependent effect”.
With `O=c1cc(-c2ccc(O)cc2)oc2cc(O)cc(O)c12`, the result in the series with L929 [5] and in the series with L929 [6] was Active.
Consider `Oc1cc(O)c2c(c1)O[C@H](c1ccc(O)c(O)c1)[C@H](O)C2` [(-)-EPICATECHIN], for which the results for the EC50 with L929 [1] and in the series on L929 [2] were 350 µM and 300 µM, respectively.
Consider `O=C1C[C@@H](c2ccc(O)c(O)c2)Oc2cc(O)cc(O)c21` [ERIODICTYOL], for which the half-maximal effective concentration (EC50) in the series on L929 [1] was determined as 6 µM; with L929 [2], 4 µM.
For `O=c1c(O)c(-c2ccc(O)cc2O)oc2cc(O)cc(O)c12` [MORIN], the outcome in the series on L929 [3] and in the series on L929 [4] was Active. Also, the half-maximal effective concentration (EC50) with L929 [1] amounted to 115 µM; with L929 [2], 120 µM. Besides, in the series on L929 [2], the Activity result is “Dose-dependent effect”.
Regarding `COc1ccc(-c2oc3cc(O)cc(O)c3c(=O)c2O)cc1` [KAEMPFERIDE], the result in the series with L929 [3] and in the series on L929 [4] was Active. Also, the EC50 in the series with L929 [1] was 140 µM; in the series on L929 [2] it was 129 µM. Moreover, the Activity entry in the series with L929 [2] was “Dose-dependent effect”.
As for `O=c1cc(-c2ccccc2)oc2cc(O)cc(O)c12`, the result in the series with L929 [5] and in the series with L929 [6] was Active.
`C[C@@H]1O[C@@H](OC[C@H]2O[C@@H](Oc3c(-c4ccc(O)c(O)c4)oc4cc(O)cc(O)c4c3=O)[C@H](O)[C@@H](O)[C@@H]2O)[C@H](O)[C@H](O)[C@H]1O` [RUTIN]: the outcome in the series with L929 [3] and with L929 [4] was Active. In addition, the results for the EC50 with L929 [1] and with L929 [2] were over 250 µM and 250 µM, respectively. The Activity result in the series on L929 [2] is “Dose-dependent effect”.
Take `O=c1c(O)c(-c2cc(O)c(O)c(O)c2)oc2cc(O)cc(O)c12` [MYRICETIN]: the outcome in the series with L929 [3] and with L929 [4] was Active. In addition, the figures for the EC50 in the series with L929 [1] and in the series with L929 [2] were 59 µM and 55 µM, respectively. For the same molecule, the Activity entry with L929 [2] was “Dose-dependent effect”.
With `CC(Cc1ccc(O)c(O)c1)C(C)Cc1ccc(O)c(O)c1` (configuration not stated) [NORDIHYDROGUAIARETIC ACID], the EC50 was found to be 19 µM with L929 [1] and 28 µM with L929 [2].
In the case of `O=c1c(O)c(-c2ccc(O)c(O)c2)oc2cc(O)cc(O)c12` [QUERCETIN], the result in the series with L929 [3] and with L929 [4] was Active. The EC50 in the series with L929 [1] is 26 µM; in the series on L929 [2] it was 20 µM. Besides, in the series on L929 [2], the Activity entry was “Dose-dependent effect”.
For the molecule `CN[C@@H]1C[C@H]2O[C@@](C)([C@@H]1OC)n1c3ccccc3c3c4c(c5c6ccccc6n2c5c31)C(=O)NC4` [STAUROSPORINE], the Activity entry was “Dose-dependent effect” with L929 [5], “Toxic” with L929 [7], “Toxic” in the series with L929 [8] and “Dose-dependent effect” in the series with L929 [6].
Take `O=C1c2c(O)cc(O)cc2O[C@H](c2ccc(O)c(O)c2)[C@H]1O` [(+)-TAXIFOLIN]: the values for the EC50 in the series with L929 [1] and in the series with L929 [2] were 240 µM and 200 µM, respectively.
`O=C1C[C@@H](c2ccc(O)cc2)Oc2cc(O)cc(O)c21` [NARINGENIN]: the outcome in the series with L929 [5] and with L929 [6] was Active. Also, the Activity in the series on L929 [9] was found to be 25%; in the series with L929 [10], 31%.
